Reference: US11161856B2 (H. Lundbeck A/S, priority 2017, dated 2021)

Experiments:
[1] = target: T1, ABHD6 (Mus musculus, UniProt Q8R2Y0); assay: In vitro competitive activity-based protein profiling, mouse brain proteome (ABHD6); type: biochemical; details: mouse brain proteome; for % Inh ABHD6 Brain (Mouse, μM): concentration not given (μM)
T1 construct: Brain; from tissue; host or cells: mouse brain proteome
T1 sequence (Q8R2Y0 1-336): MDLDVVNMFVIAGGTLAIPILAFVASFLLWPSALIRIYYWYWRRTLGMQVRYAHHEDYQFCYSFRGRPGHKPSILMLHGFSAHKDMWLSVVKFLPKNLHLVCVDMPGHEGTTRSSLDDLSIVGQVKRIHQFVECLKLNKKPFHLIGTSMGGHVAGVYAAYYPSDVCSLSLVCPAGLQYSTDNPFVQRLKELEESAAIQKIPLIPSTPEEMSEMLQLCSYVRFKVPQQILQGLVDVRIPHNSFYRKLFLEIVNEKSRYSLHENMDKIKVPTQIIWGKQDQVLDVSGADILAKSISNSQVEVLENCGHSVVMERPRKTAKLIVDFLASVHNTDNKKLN
Description: [The source words this procedure for another target and reports this target under the same test.] In Vitro Competitive Activity-Based Protein Profiling.
Proteomes (human prefrontal cortex or cell membrane fractions) (50 μL, 1.0 mg/mL total protein concentration) were preincubated with varying concentrations of inhibitors at 37° C. After 30 min, FP-Rh or HT-01 (1.0 μL, 50 μM in DMSO) was added and the mixture was incubated for another 30 min at room temperature. Reactions were quenched with SDS loading buffer (15 μL-4×) and run on SDS-PAGE.

[2] = target: T2, MGLL (Mus musculus, UniProt O35678); assay: In vitro competitive activity-based protein profiling, mouse brain proteome (MGLL); type: biochemical; parameters: IC50 MGLL Brain (Mouse, μM): scale not given here; details: for % Inh MGLL Brain (Mouse, μM): concentration not given (μM)
T2 construct: Brain; from tissue; host or cells: mouse brain proteome
T2 sequence (O35678 1-303): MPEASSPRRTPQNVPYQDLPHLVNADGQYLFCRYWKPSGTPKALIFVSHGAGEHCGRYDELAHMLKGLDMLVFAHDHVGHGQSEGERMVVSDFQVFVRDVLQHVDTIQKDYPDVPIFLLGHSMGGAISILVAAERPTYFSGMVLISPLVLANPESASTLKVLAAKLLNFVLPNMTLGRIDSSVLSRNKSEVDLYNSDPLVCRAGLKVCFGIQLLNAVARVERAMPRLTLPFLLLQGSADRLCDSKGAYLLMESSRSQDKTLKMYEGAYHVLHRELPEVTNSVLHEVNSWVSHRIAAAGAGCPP

Compound	% Inh ABHD6 Brain (Mouse, μM) [1]	% Inh MGLL Brain (Mouse, μM) [2]	inhibition at 10 µM ([1]; at 10 uM, read-out: % Inh ABHD6 Brain (Mouse))	inhibition at 10 µM ([2]; at 10 uM, read-out: % Inh MGLL Brain (Mouse))	IC50 MGLL Brain (Mouse, μM) [2]
CC(=O)N1CCN(c2cccc(Cl)c2CN2CC3(CCN(C(=O)OC(C(F)(F)F)C(F)(F)F)CC3)C2)CC1 [Example 49, 1,1,1,3,3,3-Hexafluoropropan-2-yl 2-(2-(4-acetylpiperazin-1-yl)-6-chlorobenzyl)-2,7-diazaspiro[3.5]nonane-7-carboxylate]	### (### is ≥75%)	### (### is ≥75%)	–	–	–
O=C(OC(C(F)(F)F)C(F)(F)F)N1CC2(CCN(Cc3ccc(Cl)cc3N3CCOCC3)CC2)C1 [Example 37, 1,1,1,3,3,3-Hexafluoropropan-2-yl 7-(4-chloro-2-morpholinobenzyl)-2,7-diazaspiro[3.5]nonane-2-carboxylate]	### (### is ≥75%)	### (### is ≥75%)	–	–	–
CC(=O)N1CCCC12CCN(c1cc(Cl)ccc1CN1CCN(C(=O)OC(C(F)(F)F)C(F)(F)F)CC1)CC2 [Example 204, 1,1,1,3,3,3-Hexafluoropropan-2-yl 4-(2-(1-acetyl-1,8-diazaspiro[4.5]decan-8-yl)-4-chlorobenzyl)piperazine-l-carboxylate]	# (# is ≤25%)	### (### is ≥75%)	–	–	–
O=C(OC(C(F)(F)F)C(F)(F)F)N1CCC2(CC1)CN(Cc1cccc(Oc3ccccc3)c1)C2 [Example 78, 1,1,1,3,3,3-Hexafluoropropan-2-yl 2-(3-phenoxybenzyl)-2,7-diazaspiro[3.5]nonane-7-carboxylate]	### (### is ≥75%)	### (### is ≥75%)	–	–	–
CS(=O)(=O)N1CCC2(CCN(c3cc(Cl)ccc3CN3CCN(C(=O)OC(C(F)(F)F)C(F)(F)F)CC3)CC2)C1 [Example 174, 1,1,1,3,3,3-Hexafluoropropan-2-yl 4-(4-chloro-2-(2-(methylsulfonyl)-2,8-diazaspiro[4.5]decan-8-yl)benzyl)piperazine-1-carboxylate]	# (# is ≤25%)	### (### is ≥75%)	–	–	–
CS(=O)(=O)N1CCC2(CCN(c3cccc(C(F)(F)F)c3CN3CC4(CCN(C(=O)OC(C(F)(F)F)C(F)(F)F)CC4)C3)CC2)C1 [Example 62, 1,1,1,3,3,3-Hexafluoropropan-2-yl 2-(2-(2-(methylsulfonyl)-2,8-diazaspiro[4.5]decan-8-yl)-6-(trifluoromethyl)benzyl)-2,7-diazaspiro[3.5]nonane-7-carboxylate]	### (### is ≥75%)	### (### is ≥75%)	–	–	–
CC(=O)N1CC2(CCN(c3ccccc3CN3CCN(C(=O)OC(C(F)(F)F)C(F)(F)F)CC3)C2)C1 [Example 168, 1,1,1,3,3,3-Hexafluoropropan-2-yl 4-(2-(2-acetyl-2,6-diazaspiro[3.4]octan-6-yl)benzyl)piperazine-1-carboxylate]	# (# is ≤25%)	### (### is ≥75%)	–	–	–
O=C(OC(C(F)(F)F)C(F)(F)F)N1CCC2(CC1)CN(Cc1cccc(F)c1)C2 [Example 97, 1,1,1,3,3,3-Hexafluoropropan-2-yl 2-(3-fluorobenzyl)-2,7-diazaspiro[3.5]nonane-7-carboxylate]	### (### is ≥75%)	### (### is ≥75%)	–	–	–
CC(=O)N1CC2CN(c3cc(C(F)(F)F)ccc3CN3CCN(C(=O)OC(C(F)(F)F)C(F)(F)F)CC3)CC2C1 (stereo not drawn) [Example 200, 1,1,1,3,3,3-Hexafluoropropan-2-yl 4-(2-(5-acetylhexahydropyrrolo[3,4-c]pyrrol-2(lH)-yl)-4-(trifluoromethyl)benzyl)pipera zine-l-carboxylate]	# (# is ≤25%)	### (### is ≥75%)	–	–	–
O=C(OC(C(F)(F)F)C(F)(F)F)N1CCC2(CCN(Cc3ccc(Cl)cc3N3CCC(F)CC3)CC2)C1 [Example 28, 1,1,1,3,3,3-Hexafluoropropan-2-yl 8-(4-chloro-2-(4-fluoropiperidin-1-yl)benzyl)-2,8-diazaspiro[4.5]decane-2-carboxylate]	# (# is ≤25%)	### (### is ≥75%)	–	–	* * *

Further lines, results first:

% Inh ABHD6 Brain (Mouse, μM) [1]	% Inh MGLL Brain (Mouse, μM) [2]	inhibition at 10 µM ([1]; at 10 uM, read-out: % Inh ABHD6 Brain (Mouse))	inhibition at 10 µM ([2]; at 10 uM, read-out: % Inh MGLL Brain (Mouse))	IC50 MGLL Brain (Mouse, μM) [2]	Compound
# (# is ≤25%)	### (### is ≥75%)	–	–	–	CN(Cc1cc(N2CCCC2)cc(C(F)(F)F)c1)C1(C)CCN(C(=O)OC(C(F)(F)F)C(F)(F)F)CC1 [Example 76, 1,1,1,3,3,3-Hexafluoropropan-2-yl 4-methyl-4-(methyl(3-(pyrrolidin-1-yl)-5-(trifluoromethyl)bcnzyl)amino) piperidine-1-carboxylate]
## (## is between 25 and 75%)	### (### is ≥75%)	–	–	–	CC(=O)N1CC2(CCN(c3cc(C(F)(F)F)ccc3CN3CCN(C(=O)OC(C(F)(F)F)C(F)(F)F)CC3)CC2)C1 [Example 216, 1,1,1,3,3,3-Hexafluoropropan-2-yl 4-(2-(2-acetyl-2,7-diazaspiro[3.5]nonan-7-yl)-4-(trifluoromethyl)benzyl) piperazine-1-carboxylate]
### (### is ≥75%)	## (## is between 25 and 75%)	–	–	–	O=C(OC(C(F)(F)F)C(F)(F)F)N1CC2(CCN(Cc3ccc(C(F)(F)F)cc3)CC2)C1 [Example 56, 1,1,1,3,3,3-Hexafluoropropan-2-yl 7-(4-(trifluoromethyl)benzyl)-2,7-diazaspiro[3.5]nonane-2-carboxylate]
# (# is ≤25%)	### (### is ≥75%)	–	–	–	CN1CC2(CCN(c3cc(C(F)(F)F)ccc3CN3CCN(C(=O)OC(C(F)(F)F)C(F)(F)F)CC3)C2)C1 [Example 179, 1,1,1,3,3,3-Hexafluoropropan-2-yl 4-(2-(2-methyl-2,6-diazaspiro[3,4]octan-6-yl)-4-(trifluoromethyl)benzyl) piperazine-1-carboxylate]
### (### is ≥75%)	### (### is ≥75%)	–	–	–	O=C(OC(C(F)(F)F)C(F)(F)F)N1CCC2(CC1)CN(Cc1ccc(Cl)c(Cl)c1)C2 [Example 67, 1,1,1,3,3,3-Hexafluoropropan-2-yl 2-(3,4-dichlorobenzyl)-2,7-diazaspiro[3,5]nonane-7-carboxylate]
–	–	25 to 75%	> 75%	–	O=C(OC(C(F)(F)F)C(F)(F)F)N1CCC2(CCN(Cc3ccc(Cl)c(N4CCCC4)c3)CC2)C1 [Example 172, 1,1,1,3,3,3-Hexafluoropropan-2-yl 8-(4-chloro-3-(pynolidin-1-yl)benzyl)-2,8-diazaspiro[4.5]decane-2-carboxylate]
### (### is ≥75%)	### (### is ≥75%)	–	–	–	O=C(OC(C(F)(F)F)C(F)(F)F)N1CCC2(CC1)CN(Cc1ccc(C(F)(F)F)cc1N1CCOCC1)C2 [Example 36, 1,1,1,3,3,3-Hexafluoropropan-2-yl 2-(2-morpholino-4-(trifluoromethyl)benzyl)-2,7-diazaspiro[3.5]nonane-7-carboxylate]
# (# is ≤25%)	### (### is ≥75%)	–	–	–	CCN1CCC2(CCN(c3cc(C(F)(F)F)ccc3CN3CCN(C(=O)OC(C(F)(F)F)C(F)(F)F)CC3)CC2)C1 [Example 183, 1,1,1,3,3,3-Hexafluoropropan-2-yl 4-(2-(2-ethyl-2,8-diazaspiro[4.5]decan-8-yl)-4-(trifluoromethyl)benzyl) piperazine-1-carboxylate]
### (### is ≥75%)	### (### is ≥75%)	–	–	–	O=C(OC(C(F)(F)F)C(F)(F)F)N1CCC2(CC1)CN(Cc1ccc(N3CCOCC3)cc1Cl)C2 [Example 79, 1,1,1,3,3,3-Hexafluoropropan-2-yl 2-(2-chloro-4-morpholinobenzyl)-2,7-diazaspiro[3.5]nonane-7-carboxylate]
## (## is between 25 and 75%)	## (## is between 25 and 75%)	–	–	–	CCN1CCC2(CC1)CCN(c1cc(Cl)cc(CN3CCCC34CN(C(=O)OC(C(F)(F)F)C(F)(F)F)C4)c1)C2 [Example 239, 1,1,1,3,3,3-Hexafluoropropan-2-yl 5-(3-chloro-5-(8-ethyl-2,8-diazaspiro[4.5]decan-2-yl)benzyl)-2,5-diazaspiro[3,4]octane-2-carboxylate]
### (### is ≥75%)	### (### is ≥75%)	–	–	* * *	CCN1CCCc2cccc(CN3CC4(CCN(C(=O)OC(C(F)(F)F)C(F)(F)F)CC4)C3)c21 [Example 16, 1,1,1,3,3,3-Hexafluoropropan-2-yl 2-((1-ethyl-1,2,3,4-tetrahydroquinolin-8-yl)methyl)-2,7-diazaspiro[3.5]nonane-7-carboxylate]
